What was measured:
[1] = tested on: synovial MSCs; experiment: In-vitro differentiation assay of MSCs (cartilage, bone, adipocytes); assay type: cell-based, human
Method: In-vitro differentiation assays were performed according to the method described in Colter D C. et al, Proc Natl Acad Sci USA, 2001, 98, pp. 7841 to 7845.
To form chondrogenic spheroids, 2.5×10^5 cells were transferred into 15 mL polypropylene tubes (BD Biosciences) and subjected to centrifugation at 450×g for 10 minutes. Then, the cell pellets were cultured in chondrogenic medium containing 1000 ng/mL rhBMP-2 (Infuse Bone Graft; Medtronic, TN, USA), 10 ng/mL […], and 100 nM dexamethasone (Sigma-Aldrich, MO, USA) for 14 days.
For calcification, cells were cultured in normal growth medium supplemented with 1 nM dexamethasone, 20 mM β-glycerophosphate, and 50 μg/mL ascorbic acid-2-phosphate (Sigma-Aldrich) for 21 days. Calcified nodule formation was visualized by alizarin red staining (Sigma-Aldrich).
For adipogenesis, the cells were cultured for 21 days in MEM-alpha supplemented with 10% FBS, 100 nM dexamethasone (Sigma-Aldrich), 0.5 mM IBMX (isobutyl-1-methylxanthine; Sigma-Aldrich), and 50 μM indomethacin (Wako, Tokyo, Japan). The adipogenic cultures were immobilized and stained with Oil Red O solution (Sigma-Aldrich).

[2] = tested on: synovial MSCs; experiment: Proliferation assay of synovial MSCs with recombinant protein (MTT assay); assay type: cell-based, human; details: rh Activin A at ED50x10 and ED50x100 in 10% FBS and 0.5% FBS medium, days 0-7; FIGS. 5C and D
Method: Primary human synovial cells were isolated from the synovial tissues obtained from patients who underwent total knee arthroplasty (TKA), as described in Sekiya I. et al, Clin Orthop Relat Res, 2015, 473(7), pp. 2316 to 2326. That is, first, 0.5 to 1 mg of synovium obtained by incising the suprapatellar bursa was subjected to collagenase D treatment (Sigma, MO, USA, 3 hours at 37° C.) to disperse nucleated cells. Debris was removed by passing the cell dispersion through a 70 μm nylon mesh. Nucleated cells were seeded in a 15 cm dish at 5.7×10^2 cells/cm^2 and maintained and cultured in MEM-alpha medium supplemented with 10% FBS and antibiotics (Gibco, MA, USA) for 14 days. The cells were then separated from the dish in TripLE solution (Gibco) and seeded twice more in a new dish to obtain a sufficient cell count to be used in the experiments. Note that in all experiments, cells within 6 passages were used.
To evaluate the pro-proliferative activity of recombinant proteins (IL6, IL8, IL10, and Activin A), MTT assays were performed (see FIGS. 3C and 5C-E). Synovial MSCs were seeded to 1×10^3 cells/well in 96-well plates and cultured in 0.2 mL of normal growth medium 1 day before being subjected to recombinant protein treatment. On the following day, the medium was replaced with a fresh one (normal growth medium or medium with a reduced FBS concentration of 0.5% and recombinant protein added (10 times the concentration of ED50 or 100 times the concentration of ED50)). MTT assays were performed at days 0, 1, 3, 5, and 7 according to the method described in Denizot F. et al., J Immunol Methods, 1986, 89(2), pp. 271 to 277.
In addition, the present inventors tried to clarify the molecular mechanism of MSC proliferative activity by Activin A. It has been reported that the ERK and PI3K signal transduction pathways are activated for MSC proliferation (see Uomizu, M. et al, J Med Dent Sci., 2018, vol. 65, pp. 73 to 82). With the above in mind, Activin A (rh Activin A) was applied to synovial MSCs in the presence of PI3K-PKB/Akt and Erk1/Erk2, a specific inhibitor for each of these signal transduction pathways, and the cell count was measured by MTT assay.

Activin A: homodimer of two inhibin βA chains; recombinant human protein purchased from R&D Systems
production of cartilage matrix ([1]; added to chondrogenic differentiation medium, pellet culture 2 weeks, FIG. 6C): no significant promotive effect | differentiation induction toward chondrocytic, osteoblastic and adipocytic cells ([1]; after 2 weeks of culture in the presence of Activin A, vs control, FIG. 6B): no significant changes | proliferation of MSCs (MTT assay) [2]: significantly activated
